As usually defined, the Ki is the equilibrium dissociation constant of an inhibitor or competing ligand from its target. A high value points to a looser hold on the target.

SMILES strings stand for the structures.

The subject of one test is CCI rats (thermal hyperalgesia). Put plainly: Test C: Neuropathic pain model (Chronic Constriction Injury), thermal hyperalgesia paw-withdrawal test. The test is classed as in vivo, rat. To be noted: oral, at the MED, compared to vehicle-treated animals. The text has this: Test C: Neuropathic Pain Model (Chronic Constriction Injury): […]
For the compound `Cc1ccsc1Cn1nc(O)c2[nH]c3cc(Cl)ccc3c(=O)c2c1=O` [Ex. 2, 7-Chloro-4-hydroxy-2-[2-(3-methyl)thienylmethyl]-1,2,5,10-tetrahydropyridazino[4,5-b]quinoline-1,10-dione], the “Test C % Inh. (percent decrease of hyperalgesia) at MED” value is −15%.

The test is the same for the next values; noted with them: oral, three times daily for 5 days, dose giving statistically significant decrease in hyperalgesia.
For the compound `Cc1ccsc1Cn1nc(O)c2[nH]c3cc(Cl)ccc3c(=O)c2c1=O` [Ex. 2, 7-Chloro-4-hydroxy-2-[2-(3-methyl)thienylmethyl]-1,2,5,10-tetrahydropyridazino[4,5-b]quinoline-1,10-dione], the “Test C MED (minimum effective dose)” value is 30 mg/kg/day.

The next test deals with T1, NMDA receptor glycine site (Rattus norvegicus, UniProt P35439).
T1 construct: The rat brain membranes used in the experiments were obtained from Analytical Biological Services Inc; tissue Analytical Biological Services Inc; host or cells: rat brain membranes (cerebral cortex and hippocampus, male Sprague Dawley rats)
Put plainly: Test A: Inhibition of binding of [3H]-MDL105,519 to brain membranes. To be noted: displacement of 1.2 nM [3H]MDL105,519, brain membranes. The source says:
Test A: Inhibition of Binding of [^3H]-MDL105,519:
Binding of compounds to the NMDA receptor glycine site may be assessed by measuring the ability of test compounds to inhibit the binding of tritiated MDL105,519 to brain membranes bearing the receptor.
Briefly, fresh brain tissue including cerebral cortex and hippocampus from male Sprague Dawley rats was homogenized in 0.32 M sucrose and centrifuged at low speed to separate cellular membranes from other cellular components. The membranes were then washed 3 times using deionized water, followed by treatment with 0.04% Triton X-100. Finally, membranes were washed six times in 50 mM Tris citrate buffer, pH 7.4, and frozen at −80° C. until use.
[^3H]MDL105,519 (72 Ci/mmol) was purchased from Amersham. Cold MDL105,519 was purchased from Sigma/RBI. Binding assays were performed substantially in accordance with the protocol of B. M. Baron et al., J. Phannacol. […] On the day of the experiment, brain membranes were thawed at room temperature and suspended in 50 mM tris acetate buffer, pH 7.4 (“TAB”). Seventy-five micro grams per milliliter protein (by using the BioRad dye) were used for competition binding. The experiments were carried out using 96-well plates. […] Non specific binding was determined by using 100 μM of unlabeled MDL105,519. […] After incubation, unbound [^3H]MDL105,519 was removed by filtration onto GF/B Unifilter plates using a Packard harvester. Filters were washed four times with ice cold TAB (total of 1.2 mL buffer). The plates were dried overnight at room temperature and bound radioactivity was measured on a Packard TopCount after the addition of 45 μL per well of the MICROSCINT O.
Human Brain Membranes: Human brain membranes were obtained from Analytical Biological Services Inc., and assays were performed as described for rat membranes.
Data analysis: Data was analyzed using a Microsoft Excel spreadsheet and GraphPad Prizm software and potency of compounds is expressed as the Ki (nM).
`Cc1occc1Cn1nc(O)c2[nH]c3cc(Cl)ccc3c(=O)c2c1=O` [Ex. 4, 7-Chloro-4-hydroxy-2-[(2-methyl(furan-3-yl))methyl]-1,2,5,10-tetrahydropyridazinol[4,5-b]quinonline-1,10-dione] displayed a Ki of 28 nM. `Cc1ccc(Cn2nc(O)c3[nH]c4cc(Cl)ccc4c(=O)c3c2=O)s1` [Ex. 9, 7-Chloro-4-hydroxy-2-(5-methylthien-2-ylmethyl)-1,2,5,10-tetrahydropyridazino[4,5-b]quinoline-1,10-dione] yielded a Ki of 28 nM.

As for `Cc1[nH]cnc1Cn1nc(O)c2nc3cc(Cl)ccc3c(O)c2c1=O`, the affinity, expressed as Ki, was 434 nM. Take `Cc1c(Cn2nc(O)c3[nH]c4cc(Cl)ccc4c(=O)c3c2=O)sc2ccccc12`: the Ki was found to be 161 nM. In turn, `COC(=O)c1ccc(Cn2nc(O)c3[nH]c4cc(Cl)ccc4c(=O)c3c2=O)o1` [Ex. 8, 7-Chloro-4-hydroxy-2-(5-methoxycarbonyl(furan-2-yl)methyl)-1,2,5,10-tetrahydropyirdazino[4,5-b]quinolin-1,10-dione] showed a Ki of 72 nM. Take `O=c1c2ccc(Cl)cc2[nH]c2c(O)nn(Cc3ccc(-c4ccccc4Cl)o3)c(=O)c12` [Ex. 6, 7-Chloro-4-hydroxy-2-{[5-(2-chlorophenyl)(2-furyl)]methyl}-1,2,5,10-tetrahydropyridazino[4,5-b]quinoline-1,2-dione]: the affinity corresponds to a Ki of 298 nM. Against the preceding compound, the Ki is about 4.1-fold higher.

`Cc1cc(Cn2nc(O)c3[nH]c4cc(Cl)ccc4c(=O)c3c2=O)c(C)o1` [Ex. 1, 7-Chloro-4-hydroxy-2-[3-(2,5-dimethyl)furanylmethyl]-1,2,5,10-tetrahydropyridazino[4,5-b]quinoline-1,10-dione] yielded a Ki of 24.8 nM.

For the origin of these results see US6730675B2 (AstraZeneca AB, priority 1999, dated 2004).
